The record followed here is patent US20090156577A1, “7-AMINO ALKYLIDENYL-HETEROCYCLIC QUINOLONES AND NAPHTHYRIDONES” (priority 2004, published 2009).

In this test the test system is pathogenic bacteria. The test can be described thus: MIC by microdilution broth method (NCCLS M7-A4), in vitro antibacterial activity. It counts as cell-based. The method, boiled down: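 Broth microdilution per NCCLS M7-A4: two-fold serial dilutions in cation-adjusted Mueller-Hinton broth, inoculum about 5×10^4 CFU/well. Trays incubated 16–20 h at 35 °C. MIC read by comparing growth against no-compound growth controls.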

[1] abbreviates: Streptococcus pneumoniae, Organism B: fluoroquinolone-resistant clinical isolate of Streptococcus pneumoniae (QRDR amino acid substitutions).
The mark [2] stands for this setting: Streptococcus pneumoniae, Organism C: fluoroquinolone-resistant clinical isolate of Streptococcus pneumoniae (QRDR amino acid substitutions).
The mark [3] stands for this setting: Streptococcus pneumoniae, Organism D: fluoroquinolone-resistant clinical isolate of Streptococcus pneumoniae (QRDR amino acid substitutions).
Setting [4] is: Staphylococcus aureus, Organism A: Staphylococcus aureus OC4172, read-out: MIC.
Where [5] appears, read: Streptococcus pneumoniae, ATCC49619, Organism E: Streptococcus pneumoniae ATCC 49619, read-out: MIC.
[6] abbreviates: Staphylococcus aureus, Organism A: Staphylococcus aureus OC4172.
[7] abbreviates: Streptococcus pneumoniae, ATCC49619, Organism E: Streptococcus pneumoniae ATCC 49619.

Values after ≈ are worked out from the molar mass of the structure shown. Structures can show the parent of a compound that is named as a salt. Where two headings read alike, the source gives them in different places. Where only a bound is given, the exact number is not on record here.

Consider `CNCC=C1CCN(c2c(F)cc3c(=O)c(C(=O)O)cn(C4CC4)c3c2OC)CC1` [Compound 221, 1-Cyclopropyl-6-fluoro-8-methoxy-7-[4-(2-methylamino-ethylidene)-piperidin-1-yl]-4-oxo-1,4-dihydro-quinoline-3-carboxylic Acid Trifluoroacetic Acid Salt], for which the minimal inhibitory concentration (MIC) is 2 µg/mL under setting [1], 4 µg/mL under setting [2] and 4 µg/mL under setting [3].
`CC(C)NCC(F)=C1CCN(c2nc3c(cc2F)c(=O)c(C(=O)O)cn3C2CC2)CC1` [Compound 247, 1-Cyclopropyl-6-fluoro-7-[4-(1-fluoro-2-isopropylamino-ethylidene)-piperidin-1-yl]-4-oxo-1,4-dihydro-[1,8]naphthyridine-3-carboxylic acid]: the minimum inhibitory concentration (MIC) was 0.5 µg/mL (≈ 1.16 µM) under setting [4], 0.5 µg/mL (≈ 1.16 µM) under setting [5], 8 µg/mL (≈ 18.5 µM) under setting [2] and 2 µg/mL (≈ 4.62 µM) under setting [3].
Regarding `CC(C)NCC(Cl)=C1CCN(c2cc3c(cc2F)c(=O)c(C(=O)O)cn3C2CC2)CC1` [Compound 248, 7-[4-(1-Chloro-2-isopropylamino-ethylidene)-piperidin-1-yl]-1-cyclopropyl-6-fluoro-4-oxo-1,4-dihydro-quinoline-3-carboxylic acid], the MIC reads like this: under setting [4], 0.5 µg/mL (≈ 1.12 µM); under setting [5], 2 µg/mL (≈ 4.46 µM); under setting [2], 16 µg/mL (≈ 35.7 µM); under setting [3], 4 µg/mL (≈ 8.93 µM).
For `CC(C)NCC(F)=C1CCN(c2cc3c(cc2F)c(=O)c(C(=O)O)cn3C2CC2)CC1` [Compound 249, 1-Cyclopropyl-6-fluoro-7-[4-(1-fluoro-2-isopropylamino-ethylidene)-piperidin-1-yl]-4-oxo-1,4-dihydro-quinoline-3-carboxylic acid] the same measures were 1 µg/mL (≈ 2.32 µM), 2 µg/mL (≈ 4.64 µM), 16 µg/mL (≈ 37.1 µM) and 4 µg/mL (≈ 9.27 µM).
Taken in the same sequence, the figures for `CC(C)NCC(Cl)=C1CCN(c2c(F)cc3c(=O)c(C(=O)O)cn(C4CC4)c3c2OC(F)F)CC1` [Compound 250, 7-[4-(1-Chloro-2-isopropylamino-ethylidene)-piperidin-1-yl]-1-cyclopropyl-8-difluoromethoxy-6-fluoro-4-oxo-1,4-dihydro-quinoline-3-carboxylic acid] were 0.25 µg/mL (≈ 0.486 µM), 0.5 µg/mL (≈ 0.973 µM), 8 µg/mL (≈ 15.6 µM) and 0.5 µg/mL (≈ 0.973 µM).
For `CC(C)NCC(F)=C1CCN(c2c(F)cc3c(=O)c(C(=O)O)cn(C4CC4)c3c2OC(F)F)CC1` [Compound 251, 1-Cyclopropyl-8-difluoromethoxy-6-fluoro-7-[4-(1-fluoro-2-isopropylamino-ethylidene)-piperidin-1-yl]-4-oxo-1,4-dihydro-quinoline-3-carboxylic acid] the same measures were 0.5 µg/mL (≈ 1.01 µM), 1 µg/mL (≈ 2.01 µM), 16 µg/mL (≈ 32.2 µM) and above 2 µg/mL.
As for `COc1c(N2CCC(=C(F)CNC(C)C)CC2)c(F)cc2c(=O)c(C(=O)O)cn(C3CC3)c12` [Compound 252, 1-Cyclopropyl-6-fluoro-7-[4-(i-fluoro-2-isopropylamino-ethylidene)-piperidin-1-yl]-8-methoxy-4-oxo-1,4-dihydro-quinoline-3-carboxylic Acid trifluoroacetic acid salt], the minimum inhibitory concentration (MIC) is, setting by setting: under setting [4], 0.5 µg/mL; under setting [5], 1 µg/mL; under setting [2], 8 µg/mL; under setting [3], 4 µg/mL.
Consider `NC/C(F)=C1/CCCN(c2nc3c(cc2F)c(=O)c(C(=O)O)cn3C2CC2)C1` [Compound 253, (E)-7-[3-(2-Amino-1-fluoro-ethylidene)-piperidin-1-yl]-1-cyclopropyl-6-fluoro-4-oxo-1,4-dihydro-[1,8]naphthyridine-3-carboxylic acid trifluoroacetic acid salt], for which the MIC is, setting by setting: under setting [6], 0.06 µg/mL; under setting [7], 0.5 µg/mL; under setting [1], 4 µg/mL; under setting [2], above 16 µg/mL; under setting [3], 4 µg/mL.
For the compound `NC/C(Cl)=C1/CCCN(c2nc3c(cc2F)c(=O)c(C(=O)O)cn3C2CC2)C1` [Compound 254, (E)-7-[3-(2-Amino-1-chloro-ethylidene)-piperidin-1-yl]-1-cyclopropyl-6-fluoro-4-oxo-1,4-dihydro-[1,8]naphthyridine-3-carboxylic acid], the MIC under setting [4] was 0.06 µg/mL (≈ 0.147 µM), the MIC under setting [5] was 0.25 µg/mL (≈ 0.614 µM), it took 4 µg/mL (≈ 9.83 µM) to inhibit growth under setting [2] (MIC) and the MIC under setting [3] came to 4 µg/mL (≈ 9.83 µM).
In the case of `NC/C(Cl)=C1\CCCN(c2nc3c(cc2F)c(=O)c(C(=O)O)cn3C2CC2)C1` [Compound 255, (Z)-7-[3-(2-Amino-1-chloro-ethylidene)-piperidin-1-yl]-1-cyclopropyl-6-fluoro-4-oxo-1,4-dihydro-[1,8]naphthyridine-3-carboxylic acid], the MIC under setting [4] came to 0.5 µg/mL (≈ 1.23 µM); the MIC under setting [5] came to 4 µg/mL (≈ 9.83 µM); it took 2 µg/mL (≈ 4.92 µM) to inhibit growth under setting [1] (MIC); inhibition of growth under setting [2] (MIC) required 4 µg/mL (≈ 9.83 µM); the MIC under setting [3] was 16 µg/mL (≈ 39.3 µM).
As to `NC/C(F)=C1/CCCN(c2cc3c(cc2F)c(=O)c(C(=O)O)cn3C2CC2)C1` [Compound 256, (E)-7-[3-(2-Amino-1-fluoro-ethylidene)-piperidin-1-yl]-1-cyclopropyl-6-fluoro-4-oxo-1,4-dihydro-quinoline-3-carboxylic Acid Trifluoroacetic Acid Salt], the MIC worked out at 0.03 µg/mL under setting [6]; 0.06 µg/mL under setting [7]; 1 µg/mL under setting [1]; 1 µg/mL under setting [2]; 1 µg/mL under setting [3].
For `NC/C(Cl)=C1/CCCN(c2cc3c(cc2F)c(=O)c(C(=O)O)cn3C2CC2)C1` [Compound 257, (E)-7-[3-(2-Amino-1-chloro-ethylidene)-piperidin-1-yl]-1-cyclopropyl-6-fluoro-4-oxo-1,4-dihydro-quinoline-3-carboxylic acid], the minimum inhibitory concentration (MIC) under setting [4] worked out at 0.03 µg/mL (≈ 0.0739 µM); the minimal inhibitory concentration (MIC) under setting [5] worked out at 0.06 µg/mL (≈ 0.148 µM); the MIC under setting [1] was determined as 0.5 µg/mL (≈ 1.23 µM); inhibition of growth under setting [2] (MIC) required 0.5 µg/mL (≈ 1.23 µM); it took 0.5 µg/mL (≈ 1.23 µM) to inhibit growth under setting [3] (MIC).
Regarding `NC/C(Cl)=C1\CCCN(c2cc3c(cc2F)c(=O)c(C(=O)O)cn3C2CC2)C1` [Compound 258, (Z)-7-[3-(2-Amino-1-chloro-ethylidene)-piperidin-1-yl]-1-cyclopropyl-6-fluoro-4-oxo-1,4-dihydro-quinoline-3-carboxylic acid], the MIC under setting [4] was at most 4 µg/mL; the minimum inhibitory concentration (MIC) under setting [5] stood at 8 µg/mL (≈ 19.7 µM); the MIC under setting [1] is 8 µg/mL (≈ 19.7 µM); the MIC under setting [2] was above 16 µg/mL; the minimum inhibitory concentration (MIC) under setting [3] is above 16 µg/mL.
`NC/C(F)=C1/CCCN(c2c(F)cc3c(=O)c(C(=O)O)cn(C4CC4)c3c2OC(F)F)C1` [Compound 259, (E)-7-[3-(2-Amino-1-fluoro-ethylidene)-piperidin-1-yl]-1-cyclopropyl-8-difluoromethoxy-6-fluoro-4-oxo-1,4-dihydro-quinoline-3-carboxylic acid]: the minimal inhibitory concentration (MIC) runs as follows: under setting [4], 0.03 µg/mL (≈ 0.0659 µM); under setting [5], 0.06 µg/mL (≈ 0.132 µM); under setting [1], 0.5 µg/mL (≈ 1.1 µM); under setting [2], 1 µg/mL (≈ 2.2 µM); under setting [3], 0.12 µg/mL (≈ 0.263 µM).
On to `NC/C(Cl)=C1/CCCN(c2c(F)cc3c(=O)c(C(=O)O)cn(C4CC4)c3c2OC(F)F)C1` [Compound 260, (E)-7-[3-(2-Amino-1-chloro-ethylidene)-piperidin-1-yl]-1-cyclopropyl-8-difluoromethoxy-6-fluoro-4-oxo-1,4-dihydro-quinoline-3-carboxylic acid], for which the minimum inhibitory concentration (MIC) runs as follows: under setting [4], 0.03 µg/mL (≈ 0.0636 µM); under setting [5], 0.06 µg/mL (≈ 0.127 µM); under setting [2], 0.5 µg/mL (≈ 1.06 µM); under setting [3], 0.06 µg/mL (≈ 0.127 µM).
Take `COc1c(N2CCC/C(=C(\Cl)CN)C2)c(F)cc2c(=O)c(C(=O)O)cn(C3CC3)c12` [Compound 261, (E)-7-[3-(2-Amino-1-chloro-ethylidene)-piperidin-1-yl]-1-cyclopropyl-6-fluoro-8-methoxy-4-oxo-1,4-dihydro-quinoline-3-carboxylic Acid Trifluoroacetic Acid Salt]: the MIC was at most 0.015 µg/mL under setting [6]; at most 0.015 µg/mL under setting [7]; 0.06 µg/mL under setting [1]; 0.06 µg/mL under setting [2]; 0.06 µg/mL under setting [3].
`COc1c(N2CCC(=C(Cl)CN)CC2)c(F)cc2c(=O)c(C(=O)O)cn([C@@H]3C[C@@H]3F)c12` [Compound 262, 7-[4-(2-Amino-1-chloro-ethylidene)-piperidin-1-yl]-6-fluoro-(1R,2S)-1-(2-fluoro-cyclopropyl)-8-methoxy-4-oxo-1,4-dihydro-quinoline-3-carboxylic acid]: the minimum inhibitory concentration (MIC) was at most 0.015 µg/mL under setting [4], 0.25 µg/mL (≈ 0.551 µM) under setting [5], 1 µg/mL (≈ 2.2 µM) under setting [2] and 1 µg/mL (≈ 2.2 µM) under setting [3].
Regarding `Cc1c(F)c(N2CCC(=C(Cl)CN)CC2)cc2c1c(=O)c(C(=O)O)cn2C1CC1` [Compound 263, 7-[4-(2-Amino-1-chloro-ethylidene)-piperidin-1-yl]-1-cyclopropyl-6-fluoro-5-methyl-4-oxo-1,4-dihydro-quinoline-3-carboxylic Acid], the MIC under setting [4] turned out to be 0.03 µg/mL (≈ 0.0714 µM); the minimal inhibitory concentration (MIC) under setting [5] came out at 0.12 µg/mL (≈ 0.286 µM); the minimal inhibitory concentration (MIC) under setting [1] turned out to be 0.5 µg/mL (≈ 1.19 µM); the minimum inhibitory concentration (MIC) under setting [2] stood at 1 µg/mL (≈ 2.38 µM); the MIC under setting [3] was 0.5 µg/mL (≈ 1.19 µM).
As to `CNCC(Cl)=C1CCN(c2c(F)cc3c(=O)c(C(=O)O)cn(C4CC4)c3c2O)CC1.Cl` [Compound 267, 7-[4-(1-Chloro-2-methylamino-ethylidene)-piperidin-1-yl]-1-cyclopropyl-6-fluoro-8-hydroxy-4-oxo-1,4-dihydro-quinoline-3-carboxylic Acid Hydrochloride Salt], the minimum inhibitory concentration (MIC) came out at 0.12 µg/mL under setting [4]; 0.5 µg/mL under setting [5]; 2 µg/mL under setting [1]; 2 µg/mL under setting [2]; 2 µg/mL under setting [3].
